Experimental data from US20230085803A1, “METHOD FOR SEARCHING AND SCREENING FOR TARGET OF ANTI-CANCER AGENT USING NON-HUMAN ANIMAL MODEL HAVING NOG ESTABLISHED CANCER CELL LINE TRANSPLANTED THEREIN” (CHUGAI SEIYAKU KABUSHIKI KAISHA, priority 2009, published 2023).

Legend:
[1] = system: Well-differentiated adenocarcinoma (NOG-established colon cancer cell line); experiment: Histopathology of tumor masses after 5-FU administration, well-differentiated adenocarcinoma transplanted into NOG mice; assay type: in vivo, human; conditions: NOG mice transplanted with an NOG-established colon cancer cell line, after administration of 5-fluorouracil; legend does not name the line
Description: (§1) The present inventors used NOG-established cancer cell lines that had been established so as to meet the criterion that human colon cancer, stomach cancer, lung cancer, breast cancer, or pancreatic cancer can be transplanted or passaged over three or more generations in NOG mice (Fujii E. et al., Pathol Int. 2008; 58: 559-567). In this Example, NOG-established cancer cell lines were subcutaneously transplanted into NOG mice. 28 days after transplantation, the mice were dissected, and the implants were excised and fixed with 4% paraformaldehyde at 4° C. for 16 to 24 hours. Then, the fixed samples were embedded and sliced into thin section samples by the AMeX method (Fujii E. et al., Pathol Int. 2008; 58: 559-567). The tissues were stained by HE and immunohistochemistry (IHC). Anti-E-cadherin antibody (DakoCytomation) and anti-fibronectin antibody (DakoCytomation) were used as a primary antibody. The visualization was carried out by LSAB method using DAB (DAB Map kit, Roche Diagnostics).
(§2) Each NOG-established cancer cell line whose tissue morphology was (1) well-differentiated adenocarcinoma, (2) moderately-differentiated adenocarcinoma, or (3) poorly-differentiated adenocarcinoma in the donors' human colon cancer were subcutaneously transplanted into NOG mice. […]

[2] = system: moderately-differentiated adenocarcinoma (NOG-established colon cancer cell line); experiment: Histopathology of tumor masses after 5-FU administration, moderately-differentiated adenocarcinoma transplanted into NOG mice; assay type: in vivo, human; conditions: NOG mice transplanted with an NOG-established colon cancer cell line, after administration of 5-fluorouracil; legend does not name the line
Description: as §1, §2

`O=c1[nH]cc(F)c(=O)[nH]1` [5-FU, 5-fluorouracil] was tested, and the “poorly-differentiated glandular ducts (histopathology, FIG. 13)” value [1] was “increase” and the “budding structures (histopathology, FIG. 13)” value [2] was “decrease”.
